Measured values from patent US20160374979A1, “Method of Treatment of Alopecia with Monoterpenoids” (CELLMID LIMITED, priority 2013, published 2016).

Experiments:
[1] = system: murine vibrissae follicles; assay: Hair shaft elongation of murine vibrissae follicles cultured ex vivo; set-up: species or system C3H mice; settings: piperitone 0.1 mg/mL in culture medium
Excerpt: Five week old male C3H mice (supplied by Japan SLC, lnc., Hamamatsu, Japan) were used for isolation of vibrissae follicles. The mice were sacrificed and the vibrissae follicles were carefully dissected from the mystacial pad. Briefly, the mystacial pad was cut into two sides (left and right). The skin cut, picked at the edge by tweezers, was washed in (i) 70% Ethanol for 30 seconds, (ii) PBS for 10 seconds, (iii) fresh PBS for 10 seconds, and (iv) another fresh PBS for 10 seconds. This washing process was repeated twice. After washing, the skin cut was placed inverted to expose the vibrissae follicles in Dulbecco's Modified Eagle's Medium (DMEM; Wako Pure Chemical, Osaka, Japan) at 37° C. Under a dissecting microscope, the surrounding tissue was removed from the follicles using tweezers, carefully so as not to destroy the structure of the follicles. The isolated follicles were then placed immediately into Williams' E medium (Life Technologies, Carlsbad, USA).
From the isolated mouse vibrissae follicles, only early anagen follicles were selected and randomized into groups with 30 follicles per group. […]
Follicles in each of the treatment and control groups were incubated at 37° C. at 5% CO2 for 8 days, while exchanging the respective culture mediums every 2 days. From Day 1, elongation of hair shafts was observed and the elongation length was measured for each hair shaft every 24 hours from Day 1 to Day 8 using a micrometer under microscope. […]
Follicles in each of the treatment and control groups were incubated at 37° C. at 5% CO2 for 5 days, while exchanging the culture medium every 3 days. From Day 1, elongation of hair shafts was observed and the elongation length was measured for each hair shaft every 24 hours from Day 1 to Day 5. using a micrometer under microscope. […]

[2] = system: FGF-5-dependent cell proliferation (FR-BaF3 cells expressing FGFR-1c); assay: FR-Ba/F3 cell proliferation/viability assay in the presence of FGF-5 (CCK-8); assay type: cell-based, murine
Description: Ba/F3 is a murine interleukin-3 (IL-3)-dependent pro-B cell line. […] That is, compounds were tested for their ability to modulate proliferation of FR-Ba/F3 cells in the presence of recombinant human FGF-5 (rhFGF-5) prepared according to Maeda et al., Nishi Nihon Hifuka, 69(1): 81-86, 2007.
Briefly, a suitable plasmid expressing FGFR-1c was introduced into […] ER-Ba/F3 cells, and the cells were maintained in RPMI RPMI-1640 with 10% FBS and 1.3×10^−17 M of murine IL-3 (Sigma, St Louis, […].) containing antibiotic G418 sulfate (Promega, Medison, Wis.). The inventors compared proliferation of FR/BaF3 cells in culture medium containing IL3 or FGF-5 and a different concentration in the range from 0.005% (w/v) to 1.0% (w/v) of each test compound listed in Example 1. The FR-BaF3 cells were seeded at 5×10^4/mL cells per well in 96-well, micro-culture plates (Falcon) in RPMI-1640 culture medium containing 10% fetal bovine serum, 5 μg/mL heparin. Recombinant human FGF-5 (rhFGF-5; 1 μg/mL) was added to one group, and IL-3 (0.2 ng/mL) (Sigma) was added to another group. The test compounds were then introduced to the micro-culture plate wells. Total volume of media per well was 100 μl. Control groups lacking test compound were also prepared for each of the IL-3-supplemented and FGF-5-supplemented samples. The plates were then incubated at 37° C. in 5% CO2 for 3 days.
After 3 days, colorimetric assays were performed using a Cell Counting Kit-8 (CCK-8) (Wako) according to the manufacturer's instructions to measure cell proliferation or suppression thereof by the test compound at varying concentrations. Briefly, 10 μl (1:2 dilution) of the CCK-8 reagent was added to each micro-culture plate well after which time the plates were incubated at […] for 3 hours. Absorbance at 450 nm was then measured using a microplate reader. Cell viability and proliferation for the IL-3-supplemented and FGF-5-supplemented groups was calculated as a measure of the optical density (OD) of cells treated with a test compound relative to the OD of the respective untreated controls, excluding the OD of blank controls (media only). Dose response curves were plotted and the respective inhibitory concentrations (IC50) for the test compounds were determined.

CC1=CC(=O)C(C(C)C)CC1 (stereo not shown) [Piperitone, 3-Methyl-6-(propan-2-yl)cyclohex-2-en-1-one]
hair shaft elongation over time ([1]; 5 days (FIG. 22)): continued steadily and consistently throughout the culture period | hair growth ([1]; versus control): increased hair growth | FGF-5-inhibitory activity (in words) ([2]; judged from FR-BaF3 result): potent FGF-5-inhibitory active substances | FGF-5 Specificity IL-1/FGF-5 ([2]; ratio of the IC50 with IL-3 to the IC50 with FGF-5, BR: less reproducible): 25
